What was measured:
[1] = tested on: FADD−/− Jurkat cells; assay: Necroptosis inhibition assay, TNF-α-induced necroptosis (CellTiter-Glo 2.0); format: cell-based, human; conditions: TNF-α 15 ng/mL, FADD−/− Jurkat cells; for Necroptosis inhibition assay (Rescue %) 1 μM: compound 1 μM; for Necroptosis inhibition assay (Rescue %) 10 μM: compound 10 μM
Procedure, shortened: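 Necroptosis was triggered by TNF-α at 15 ng/mL final following 30 minutes of compound exposure (0.1, 1 or 10 μM final). Incubation ran 20 to 24 hours at 37° C under 5% CO2; cell ATP was then quantified by luminescence.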

[2] = target: T1, MLKL (Homo sapiens, UniProt Q8NB16); assay: MLKL degradation assay in HepG2 cell line (western blot); format: cell-based; design: endogenous in cells; host or cells: HepG2 or HaCaT; conditions: cell line not given; for Degradation assay (Degradation %) 1 μM: compound 1 μM; for Degradation assay (Degradation %) 10 μM: compound 10 μM
T1 sequence (Q8NB16 1-471): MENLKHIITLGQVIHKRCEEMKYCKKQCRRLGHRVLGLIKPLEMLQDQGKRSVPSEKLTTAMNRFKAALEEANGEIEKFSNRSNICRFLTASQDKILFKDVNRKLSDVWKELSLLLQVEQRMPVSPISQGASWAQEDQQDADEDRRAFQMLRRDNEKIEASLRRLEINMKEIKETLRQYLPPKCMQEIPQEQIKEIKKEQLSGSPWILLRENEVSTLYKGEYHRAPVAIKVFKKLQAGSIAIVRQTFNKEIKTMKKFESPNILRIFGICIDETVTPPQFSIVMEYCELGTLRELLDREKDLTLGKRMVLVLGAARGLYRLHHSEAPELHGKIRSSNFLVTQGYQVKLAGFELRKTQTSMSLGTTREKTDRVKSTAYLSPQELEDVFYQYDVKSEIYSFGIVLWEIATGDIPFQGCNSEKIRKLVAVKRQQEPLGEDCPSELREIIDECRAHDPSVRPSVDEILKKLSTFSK
Procedure, shortened: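 After treating HepG2 with test compounds (final 1 μM or 10 μM) for 20-24 h, we lysed cells, equalized protein by BCA and probed MLKL by overnight primary antibody at 4 °C followed by chemiluminescent detection.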

[3] = target: T1, MLKL; assay: Measurement of binding affinity with MLKL receptor (competitive binding assay, Kd); design: made in house; host or cells: HEK 293 cell line (T7 phage in E. coli BL21-derived host is also described)
Procedure, shortened: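 Kd from an immobilized-ligand competition format: the DNA-tagged kinase from HEK 293 expression is eluted and quantified by qPCR. Compounds added from 111× DMSO stocks, final DMSO 0.9%.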

| Degradation assay (Degradation %) 1 μM [2] [%] | Degradation assay (Degradation %) 10 μM [2] [%] | Kd [3] [nM] | SMILES | Necroptosis inhibition assay (Rescue %) 1 μM [1] [%] | Necroptosis inhibition assay (Rescue %) 10 μM [1] [%] |
| --- | --- | --- | --- | --- | --- |
| 92.21 | 75.10 | 0.41 | Nc1ncc(-c2cnn(C3CCN(CCC4CCN(C(=O)c5ccc6c(N7CCC(=O)NC7=O)coc6c5)CC4)CC3)c2)nc1C(=O)O[C@@H](C(=O)Nc1ccc(F)cc1)c1ccccc1 [TDH-552, (R)-2-((4-fluorophenyl)amino)-2-oxo-1-phenylethyl 3-amino-6-(1-(1-(2-(1-(3-(2,4-dioxotetrahydropyrimidin-1(2H)-yl)benzofuran-6-carbonyl)piperidin-4-yl)ethyl)piperidin-4-yl)-1H-pyrazol-4-yl)pyrazine-2-carboxylate] | 31.97 | 6.25 |
| 84.21 | 91.57 | 0.31 | Nc1ncc(-c2cnn(C3CCN(C4CC5(CCN(CC6CCN(C(=O)c7ccc8c(N9CCC(=O)NC9=O)coc8c7)CC6)CC5)C4)CC3)c2)nc1C(=O)O[C@@H](C(=O)Nc1ccc(F)cc1)c1ccccc1 [TDH-553, (R)-2-((4-fluorophenyl)amino)-2-oxo-1-phenylethyl 3-amino-6-(1-(1-(7-((1-(3-(2,4-dioxotetrahydropyrimidin-1(2H)-yl)benzofuran-6-carbonyl)piperidin-4-yl)methyl)-7-azaspiro[3.5]nonan-2-yl)piperidin-4-yl)-1H-pyrazol-4-yl)pyrazine-2-carboxylate] | 58.63 | −20.56 |
| 83.95 | 70.50 | 0.43 | Nc1ncc(-c2cnn(C3CCN(CCOC4CCN(C(=O)c5ccc6c(N7CCC(=O)NC7=O)coc6c5)CC4)CC3)c2)nc1C(=O)O[C@@H](C(=O)Nc1ccc(F)cc1)c1ccccc1 [TDH-554, (R)-2-((4-fluorophenyl)amino)-2-oxo-1-phenylethyl 3-amino-6-(1-(1-(2-((1-(3-(2,4-dioxotetrahydropyrimidin-1(2H)-yl)benzofuran-6-carbonyl)piperidin-4-yl)oxy)ethyl)piperidin-4-yl)-1H-pyrazol-4-yl)pyrazine-2-carboxylate] | 39.53 | 14.16 |
| 78.56 | – | 0.22 | Nc1ncc(-c2cnn(C3CCN(CC4CCN(CC5CCN(C(=O)c6ccc7c(N8CCC(=O)NC8=O)coc7c6)CC5)CC4)CC3)c2)nc1C(=O)O[C@@H](C(=O)Nc1ccc(F)cc1)c1ccccc1 [TDH-555, (R)-2-((4-fluorophenyl)amino)-2-oxo-1-phenylethyl 3-amino-6-(1-(1-((1-((1-(3-(2,4-dioxotetrahydropyrimidin-1(2H)-yl)benzofuran-6-carbonyl)piperidin-4-yl)methyl)piperidin-4-yl)methyl)piperidin-4-yl)-1H-pyrazol-4-yl)pyrazine-2-carboxylate] | 47.10 | −51.39 |
